Measurements taken from US12551480B2, “Treatment using EYP001” (ENYO PHARMA, priority 2019, dated 2026).

What was measured:
[1] = Study EYP001-202 Phase 2a in NASH patients: liver fat content (LFC) change from baseline to Week 12 by MRI-PDFF; assay type: in vivo, human
Procedure: FIG. 2: Absolute Liver Fat Content Change (%) from baseline assessed by MRI-PDFF in NASH patients treated during 12 weeks with EYP001 100 mg BID (n=4) or EYP001 200 mg QD (n=3) or Placebo (n=5). Values expressed as means; error bar is SE. #p=0.07 vs baseline. The ------- line corresponds to a 5% clinical meaningful reduction. Analysis of covariance (ANCOVA) model with change from baseline as the dependent variable and baseline Liver Fat Content as a covariate and treatment (pooled EYP001 and Placebo BID) and stratification factors—statin use and T2DM status at screening as factors.
(§1) EYP001a is an investigational agonist of the FXR, a key regulator of bile, lipid, and glucose metabolism. […] Study EYP001-202 is a Phase 2a, 2-part study conducted to determine the efficacy and safety profiles of different doses and dosing regimens of EYP001 (100 mg twice daily [BID] and 200 mg once daily [QD]) versus placebo on LFC (liver fat content) from baseline to Week 12 in patients with NASH. An interim analysis on 24 patients enrolled in Part A Safety Run-in Cohort focused on safety, tolerance and key efficacy results.
The primary efficacy endpoint of LFC reduction was met.

NASH rodent model = assay type: in vivo
HBV (plasma HBsAg) = test: Plasma HBsAg change from baseline in patients with chronic Hepatitis B infection, 4 weeks; assay type: in vivo, human; conditions: 400 mg QD vs 200 mg BID, chronic Hepatitis B patients (FIG. 3)
Procedure: FIG. 3: Plasma HBsAg (Log 10 IU/mL) change from baseline in patients with chronic Hepatitis B infection. Patients received during 4 weeks either Placebo (n=8), EYP001 200 mg BID (n=8) or EYP001 400 mg QD (n=8). Values expressed as mean; error bar is SD. * p<0.05 vs baseline.
Patients chronically infected with HBV underwent a 4-week treatment as either daily oral FXR agonist EYP001 monotherapy or placebo or entecavir (ETV) in Part A of the study (n=48) or in combination with IFN (Part B, n=23, weekly sub-cutaneous injections of pegylated IFNα2a, PEG-IFN). Overall 15 (30%) patients developed pruritus related to EYP001, a well-known TEAE with FXR agonist, the mechanism of which however is poorly understood.

[2] = human, in vivo
[3] = Study EYP001-202 Phase 2a in NASH patients: pruritus intensity on Visual Analog Scale, safety and tolerance; assay type: in vivo, human
Procedure: Values are AUC least square means (error bars=SE). AUC=area under the concentration-time curve; BID=twice daily; QD=once daily. * p<0.05 versus Placebo.
as §1
VAS (Visual Analog Score) results were the followings: 100 mg BID group (mean change from baseline ranged from 3.34 on Day 7 to 6.84 on Day 21), and the 200 mg QD group (mean change from baseline ranged from 3.03 on Day 28 to 3.47 on Day 56).
The efficacy was shown with a significant, clinically relevant LFC reduction from baseline. However, tolerance was affected due to pruritus events causing premature terminations. The BID regimen less well tolerated compared to QD regimen. In addition, a higher efficacy is associated to the QD regimen in comparison to the BID.

[4] = clinical trials of obeticholic acid (PBC, NASH); cited from earlier work

With `O=C(O)c1cc2c(Cl)c(N3CCN(S(=O)(=O)c4c(Cl)cccc4Cl)CC3)ccc2o1` [EYP001] the “LFC reduction, regimens compared” value ([1]; 200 mg QD group compared to 100 mg BID group, 12 weeks (FIG. 2)) was “more pronounced effect”, the “LFC reduction, difference from placebo” value ([1]; EYP001 groups pooled (100 mg BID and 200 mg QD), baseline to Week 12, p=0.04, absolute LFC change (%) by MRI-PDFF) was 8.62 and the “effect on liver steatosis, inflammation, apoptosis and fibrosis” value (NASH rodent model) was “reduced liver steatosis, inflammation, apoptosis, and fibrosis”. The “plasma HBsAg change from baseline, efficacy of regimens compared” value (HBV (plasma HBsAg)) was “better efficacy”, the “frequency of pruritus with QD dosing compared to BID regimens” value [2] was “up to four times less frequent pruritus” and the “any of above Pruritus related MEDRA (% of patients)” value ([2]; 4 weeks) was 27%. The “n = any of above Pruritus related MEDRA (number of patients)” value ([2]; 4 weeks) was 9, the “none of above (% of patients without pruritus)” value ([2]; 4 weeks) was 73% and the “none of above (number of patients without pruritus)” value ([2]; 4 weeks) was 24. For the same compound, the “patients who developed pruritus related to EYP001 (%)” value ([2]; 4 weeks) was 30%, the “patients who developed pruritus related to EYP001 (number)” value ([2]; 4 weeks) was 15 and the “tolerance in VAS analysis (AUC over 12 weeks)” value ([3]; NASH patients, 200 mg QD vs 100 mg BID (FIG. 1)) was “better tolerance”. The “serious AEs” value ([3]; male and female F2-F3 NASH patients, 100 mg BID and 200 mg QD) was “no serious AEs”.

In the case of `CC[C@H]1[C@@H](O)[C@@H]2[C@H](CC[C@]3(C)[C@@H]([C@H](C)CCC(=O)O)CC[C@@H]23)[C@@]2(C)CC[C@@H](O)C[C@@H]12` [obeticholic acid], the pruritus rates [4] is listed as “up to 51%”.
